Measured values published in patent US4820713A, “Ketoalkanol esters of dihydrolysergic acid useful as 5HT receptor antagonists” (Eli Lilly and Company, priority 1988, dated 1989).
Structures can show the parent of a compound that is named as a salt.

Columns and labels:
5HT2 receptors [1] = details: cited from earlier work
[2] = system: vascular alpha adrenergic receptors; details: in words; Cohen I; cited from earlier work
5HT2 receptors [3] = details: in words; cited from earlier work
histaminergic receptors = details: in words; Cohen I; cited from earlier work
dopaminergic receptors = details: in words; Cohen I; cited from earlier work
5HT2 receptors [4] = molecular target: T1, 5HT2 receptors (Rattus norvegicus, UniProt P14842); assay: Apparent antagonist dissociation constant (-log KB) versus serotonin-induced contraction of isolated rat jugular vein; design: species or system male Wistar rats; details: antagonist incubated one hour, 37° C., maleate salt, read-out: 5HT2 -Log Kb ± S.E. (converted)
T1 construct: external jugular veins and thoracic aortas dissected free of connective tissue; from tissue; host or cells: external jugular vein of male Wistar rats
T1 sequence (P14842 whole entry): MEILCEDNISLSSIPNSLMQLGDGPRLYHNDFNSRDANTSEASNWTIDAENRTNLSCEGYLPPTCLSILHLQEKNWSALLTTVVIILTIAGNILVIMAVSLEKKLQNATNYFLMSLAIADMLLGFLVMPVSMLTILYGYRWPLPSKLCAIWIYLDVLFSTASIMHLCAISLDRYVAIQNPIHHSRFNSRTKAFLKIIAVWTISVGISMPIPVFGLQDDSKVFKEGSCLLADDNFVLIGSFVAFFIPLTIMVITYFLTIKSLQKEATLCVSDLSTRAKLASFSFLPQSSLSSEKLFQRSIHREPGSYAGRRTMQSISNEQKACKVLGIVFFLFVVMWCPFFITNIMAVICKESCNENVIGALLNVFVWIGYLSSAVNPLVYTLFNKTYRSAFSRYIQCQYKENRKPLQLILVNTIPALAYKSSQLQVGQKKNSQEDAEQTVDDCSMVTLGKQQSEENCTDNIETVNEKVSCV
Procedure: An initial optimum resting force of 1 and 4 g was applied to the jugular vein and aorta, respectively. […] Exp. Ther., 205, 400 (1978). Alpha receptor antagonist activity was evaluated in the aorta.

blood pressure = details: in humans; ketanserin; cited from earlier work

In the case of `CC(O)C(C)OC(=O)[C@@H]1C[C@@H]2c3cccc4c3c(cn4C(C)C)C[C@H]2N(C)C1` (stereo partly drawn) [LY53857, 1-isopropyl-6-methyl-8β-(1-methyl-2-hydroxy)propoxycarbonyl-5R-ergoline], the Kd (5HT2 receptors [1]; Cohen et al. J.P.E.T., 227, 327 (1983), read-out: Kdissoc. (5HT2 receptors)) is listed as roughly 0.1 nM, the “antagonism of vascular contraction to serotonin” value (5HT2 receptors [1]; effect mediated by 5HT2 receptors, Cohen I) is listed as “potent antagonist of vascular contraction to serotonin” and the “affinity for vascular alpha adrenergic receptors” value [2] is listed as “minimal affinity”. The “peripheral serotonin antagonist activity, ranking among Garbrecht compounds” value (5HT2 receptors [3]) was “most active peripheral serotonin antagonist”, the “affinity for histaminergic receptors” value (histaminergic receptors) was “minimal affinity” and the “affinity for dopaminergic receptors” value (dopaminergic receptors) was “minimal affinity”.

Work on `CC(=O)[C@@H](C)OC(=O)[C@@H]1C[C@@H]2c3cccc4c3c(cn4C(C)C)C[C@H]2N(C)C1` [RCH(CH3)COCH3, R-1-methyl-2-oxopropyl 1-isopropyl-9,10-dihydrolysergate maleate] yielded a Kb (5HT2 receptors [4]) of 0.355 nM.

For `CC(=O)[C@H](C)OC(=O)[C@@H]1C[C@@H]2c3cccc4c3c(cn4C(C)C)C[C@H]2N(C)C1` [SCH(CH3)COCH3, S-1-methyl-2-oxopropyl 1-isopropyl-9,10-dihydrolysergate], the Kb (5HT2 receptors [4]) was 0.269 nM.

For `O=C(c1ccc(F)cc1)C1CCN(CCn2c(=O)[nH]c3ccccc3c2=O)CC1` [ketanserin], the lower blood pressure (blood pressure) is given as “lower blood pressure in humans”.
